From patent US20120309087A1, “CANCER THERAPY” (University Court of The University of Dundee, priority 2006, published 2012)
Where two headings read alike, the source gives them in different places.

Columns and labels:
[1] = system: AKR1C mRNA in AREc32 cells; experiment: AKR1C mRNA in AREc32 cells (TaqMan); details: without pre-treatment with BSO; 24 h
[2] = system: ARE-driven luciferase activity in AREc32 cells; experiment: Induction of ARE-driven luciferase activity in stable AREc32 reporter cells; assay type: cell-based, human; details: for CD, concentration of inducting agent that doubled luciferase reporter activity: DMSO set at 1
[3] = system: ARE-driven luciferase activity in AREc32 cells; experiment: Antagonism of induced ARE-driven luciferase activity in AREc32 cells; assay type: cell-based, human; details: 5 mM NAC; BSO pre-treated cells; cisplatin, melphalan, chlorambucil, BCNU
MCF7 cells = experiment: cells; assay type: cell-based; details: for synergy with Bleomycin (cell killing, isobologram): 72 hrs
A549 cells = experiment: Cytotoxicity in A549 cells (ATP levels, 72 h); assay type: cell-based, human; details: single agent
[4] = system: AKR1C1, NQO1, GCLC, GCLM mRNA in A549 cells; experiment: Constitutive mRNA of ARE-driven genes in A549 cells (Taqman); assay type: cell-based, human; details: BTB09463 1, 5, 20, 40 μmol/l or retinoids 0.050, 0.20, 0.50, 2.0 μmol/l, 24 hrs
[5] = system: AKR1C and NQO1 protein in MCF7 cells; experiment: AKR1C and NQO1 protein in MCF7 cells (Western blots); assay type: cell-based, human; details: sulforaphane 5 μM + retinoid 0.5 μM, 24 hrs
Description: Method: AREc32 cells were seeded out in 96 well plates and treated with DMSO (control), tBHQ (50 μM), tBHQ+BTB09463 (5 μM) or tBHQ+Retinoic acid (1 μM). After 24 hours incubation, cells were washed and lysed before measuring luciferase activity. BTB09463 is 1-{4-[(3,4-dichlorobenzyl)oxy]phenyl}ethan-1-one. […] Method: AREc32 cells were seeded out in 96 well plates and dosed with BTB09463 (2.5, 5 or 10 μM) for 0, 24 or 48 hrs before treatment with tBHQ (50 μM). 24 hours after the addition of tBHQ, cells were washed and lysed before measuring luciferase activity. […] Method: ARE c32 cells were seeded out in 96 well plates and treated with DMSO (control), tBHQ (50 μM), tBHQ+retinoid (0.25, 0.5 and 1 μM). After 24 hours incubation, cells were washed and lysed before measuring luciferase activity. […] See FIG. 16 Method: A. Caco-2 cells were treated with the known ARE-gene inducer sulforaphane (5 μM), either alone or concomitantly with BTB09463 (5 μM) or Retinoic acid (1 μM). After 24 hrs, cell lysates were prepared and Western blotting performed to measure the levels of AKR1C protein. B. MCF7 cells were treated with sulforaphane (5 μM), either alone or concomitantly with BTB09463 (5 μM). After 24 hrs, cell lysates were prepared and Western blots performed to detect the levels of AKR1C and NQO1; GAPDH was used as a loading control in MCF7 cells. […] Method: Caco-2 cells were treated with DMSO (control), BTB09463 (5 μM), sulforaphane (5 μM) or a combination of sulforaphane plus BTB09463. After 24 hrs treatment, cells were harvested and RNA isolated. cDNA for each sample was generated by reverse transcription and subsequently used in real time PCR analysis of gene transcription (TaqMan analysis) for the ARE-driven genes AKR1C1 and NQO1. Data was normalised to the internal control 18S RNA and the relative levels of AKR1C1 and NQO1 calculated using the comparative CT method. […] Method: MCF7 cells were treated with the known ARE-gene inducer sulforaphane (5 μM), either alone or with various retinoids (0.5 μM). After 24 hrs, cell lysates were prepared and Western blots were performed to detect the levels of AKR1C protein present. […] See FIG. 19 Method: ARE reporter cell line AREc23 was seeded into 96 well plates and treated with a previously determined non-toxic concentration of cytotoxic drug. After 24 hours incubation, cells were washed and lysed before measuring luciferase activity. […] See FIG. 20a Method: ARE reporter cell line AREc23 was seeded into 96 well plates and treated with DMSO (control), Carmustine (100 μM), Carmustine+BTB09463 (5 μM) or Carmustine+Retinoic acid (5 μM) After 24 hours incubation, cells were washed and lysed before measuring luciferase activity. […] After 24 hours incubation, cells were washed and lysed before measuring luciferase activity. B. Modified repeat of experiment A, with cells being pretreated with L-buthionine-(SR)-sulfoximine (BSO), an inhibitor of enzymes in the glutathione synthesis pathway. After 24 hours incubation, cells were washed and lysed before measuring luciferase activity. […] Method: Caco-2 cells were treated for 24 hrs with DMSO (control), Carmustine (100 μM), Carmustine+BTB09463 (5 μM). After 24 hrs, cell lysates were prepared and Western blots to detect the levels of AKR1C. […] Method: MCF7 cells were treated for 24 hrs with DMSO (control; Lane 1), Sulforaphane (5 μM) (Lane 2), Carmustine (100 μM) (Lane 3), Carmustine+BTB09463 (5 μM) (Lane 5). (Lane 4 represents experimental conditions irrelevant to the application). After 24 hrs, cell lysates were prepared and Western blots to detect the levels of Nrf2, NQO1 and AKR1C proteins.

[6] = system: AKR1C1 and NQO1 mRNA in Caco-2 cells; experiment: AKR1C1 and NQO1 mRNA in Caco-2 cells (TaqMan); assay type: cell-based, human; details: sulforaphane 5 μM, 24 hrs
Description: Method: AREc32 cells were seeded out in 96 well plates and treated with DMSO (control), tBHQ (50 μM), tBHQ+BTB09463 (5 μM) or tBHQ+Retinoic acid (1 μM). After 24 hours incubation, cells were washed and lysed before measuring luciferase activity. BTB09463 is 1-{4-[(3,4-dichlorobenzyl)oxy]phenyl}ethan-1-one. […] Method: AREc32 cells were seeded out in 96 well plates and dosed with BTB09463 (2.5, 5 or 10 μM) for 0, 24 or 48 hrs before treatment with tBHQ (50 μM). 24 hours after the addition of tBHQ, cells were washed and lysed before measuring luciferase activity. […] Method: ARE c32 cells were seeded out in 96 well plates and treated with DMSO (control), tBHQ (50 μM), tBHQ+retinoid (0.25, 0.5 and 1 μM). After 24 hours incubation, cells were washed and lysed before measuring luciferase activity. […] See FIG. 16 Method: A. Caco-2 cells were treated with the known ARE-gene inducer sulforaphane (5 μM), either alone or concomitantly with BTB09463 (5 μM) or Retinoic acid (1 μM). After 24 hrs, cell lysates were prepared and Western blotting performed to measure the levels of AKR1C protein. B. MCF7 cells were treated with sulforaphane (5 μM), either alone or concomitantly with BTB09463 (5 μM). After 24 hrs, cell lysates were prepared and Western blots performed to detect the levels of AKR1C and NQO1; GAPDH was used as a loading control in MCF7 cells. […] Method: Caco-2 cells were treated with DMSO (control), BTB09463 (5 μM), sulforaphane (5 μM) or a combination of sulforaphane plus BTB09463. After 24 hrs treatment, cells were harvested and RNA isolated. cDNA for each sample was generated by reverse transcription and subsequently used in real time PCR analysis of gene transcription (TaqMan analysis) for the ARE-driven genes AKR1C1 and NQO1. Data was normalised to the internal control 18S RNA and the relative levels of AKR1C1 and NQO1 calculated using the comparative CT method. […] Method: MCF7 cells were treated with the known ARE-gene inducer sulforaphane (5 μM), either alone or with various retinoids (0.5 μM). After 24 hrs, cell lysates were prepared and Western blots were performed to detect the levels of AKR1C protein present. […] See FIG. 19 Method: ARE reporter cell line AREc23 was seeded into 96 well plates and treated with a previously determined non-toxic concentration of cytotoxic drug. After 24 hours incubation, cells were washed and lysed before measuring luciferase activity. […] See FIG. 20a Method: ARE reporter cell line AREc23 was seeded into 96 well plates and treated with DMSO (control), Carmustine (100 μM), Carmustine+BTB09463 (5 μM) or Carmustine+Retinoic acid (5 μM) After 24 hours incubation, cells were washed and lysed before measuring luciferase activity. […] After 24 hours incubation, cells were washed and lysed before measuring luciferase activity. […]

[7] = AREc32, 24 h, grouping of drugs by effect on luciferase activity

Q: `N[C@@H](Cc1ccc(N(CCCl)CCCl)cc1)C(=O)O` [Mephalan, melphalan] was tested. Which “mRNA level of AKR1C (in words)” value [1] did it give?
A: only slightly increased

Q: What about the “induction of luciferase activity after BSO pre-treatment” value ([2]; 50 μM BSO 24 h, then 10 μM cisplatin, 20 μM melphalan, 100 μM BCNU or 100 μM chlorambucil 24 h) of the same molecule?
A: 5 fold

Q: What about the “effect on luciferase activity in AREc32 cells (in words)” value (shortened to “effect on luciferase activity”) ([2]; 24 h, sub-lethal doses, no BSO, listed as melphalan) of the same molecule?
A: weak inducers

Q: What about the “effect on luciferase activity” value ([2]; 24 h, sub-lethal doses, no BSO, listed as mephalan) of the same molecule?
A: modestly increased

Q: What about the “Fold increase (luciferase activity relative to control value)” value ([2]; AREc32, 24 h, concentration of each drug given in column Conc., mean ± S.D.) of the same molecule?
A: 1.3 ± 0.06

Q: What about the Type of modulation [2, 7] of the same molecule?
A: Weak inducers

Q: With `CC(=O)N[C@@H](CS)C(=O)O` [NAC] as the molecule, how does the “repression of anticancer drug induction of luciferase activity” value [3] read?
A: nearly completely repressed

Q: For `C=CC=O` [Acrolein], which “increase in luciferase activity” value ([2]; 10 μM acrolein) is on record?
A: 27 fold

Q: What about the “CD, concentration of inducting agent that doubled luciferase reporter activity” value (“CD, concentration” for short) ([2]; AREc32, 24 h) of the same molecule?
A: 2 µM

Q: What about the Type of modulation [2, 7] of the same molecule?
A: Strong inducer

Q: For `CS(=O)(=O)OCCCCOS(C)(=O)=O` [busulphan], which “induction of ARE-driven luciferase activity” value ([2]; previously determined non-toxic concentration, 24 hours) is on record?
A: 3.1 fold

Q: Bleomycin was tested. Which IC50 (MCF7 cells; single agent) did it give?
A: 660 µM

Q: What about the IC50 (A549 cells) of the same molecule?
A: 55 µM

Q: For `COc1cccc2c1C(=O)c1c(O)c3c(c(O)c1C2=O)C[C@@](O)(C(=O)CO)C[C@@H]3O[C@H]1C[C@H](N)[C@@H](O)[C@H](C)O1` [Epirubicin], which “effect on luciferase activity” value ([2]; 24 h, sub-lethal doses, no BSO) is on record?
A: no effect

Q: And the Type of modulation [2, 7]?
A: Inactive

Q: `CC(=O)OC/C=C(C)/C=C/C=C(C)/C=C/C1=C(C)CCCC1(C)C` [Retinyl acetate] was tested. Which “constitutive expression of AKR1C1 mRNA” value [4] did it give?
A: inhibited the constitutive expression of AKR1C1 in a concentration-dependent manner

Q: And the “synergy with Bleomycin (cell killing, isobologram)” value (MCF7 cells)?
A: very potent, synergistic increase in cell killing

Q: What about the “sulforaphane-induced AKR1C protein” value [5] of the same molecule?
A: reduced the expression of sulforaphane-induced AKR1C

Q: `C[S+]([O-])CCCCN=C=S` (stereo not shown) [SUL, sulforaphane] was tested. Which “induction of AKR1C1 mRNA” value [6] did it give?
A: 12 fold

Q: What about the “induction of NQO1 mRNA” value [6] of the same molecule?
A: less markedly induced

Q: And the “CD, concentration” value ([2]; AREc32, 24 h)?
A: 2 µM

Q: For `O=C1c2c(O)ccc(O)c2C(=O)c2c(NCCNCCO)ccc(NCCNCCO)c21` [Mitozantrone], which “effect of BSO pre-treatment on luciferase activity” value ([2]; 50 μM BSO 24 h before drug, data not shown) is on record?
A: did not change luciferase activity significantly

Q: And the Type of modulation [2, 7]?
A: Weak inducers

Q: Which “constitutive expression of AKR1C1 mRNA” value [4] does the source give for `CC1=C(/C=C/C(C)=C/C=C/C(C)=C/C=O)C(C)(C)CCC1` [all-trans retinal] here?
A: inhibited the constitutive expression of AKR1C1 in a concentration-dependent manner

Q: And the “sulforaphane-induced AKR1C protein” value [5]?
A: reduced the expression of sulforaphane-induced AKR1C

Q: For `CCOc1ccc2ccc(=O)oc2c1` [7-ethoxycoumarin], which “CD, concentration” value ([2]; AREc32, 24 h) is on record?
A: 100 µM

Q: Which results are given for `O=P1(N(CCCl)CCCl)NCCCO1` (stereo not shown) [Cyclophosphamide]?
A: Type of modulation [2]: Inactive; effect on luciferase activity in AREc32 cells (in words) [2]: did not have any effect

Q: For `OO` [H2O2], which “CD, concentration” value ([2]; AREc32, 24 h) is on record?
A: 300 µM

Q: Which “synergy with Bleomycin (cell killing, isobologram)” value (MCF7 cells) does the source give for `COc1cc(C)c(/C=C/C(C)=C/C=C/C(C)=C/C(=O)O)c(C)c1C` [Acitretin] here?
A: very potent, synergistic increase in cell killing

Q: And the “sulforaphane-induced AKR1C protein” value [5]?
A: reduced the expression of sulforaphane-induced AKR1C
